Laboratory results taken from article PMC9611540, “PEGylation of the antimicrobial peptide LyeTx I-b maintains structure-related biological properties and improves selectivity” (Frontiers in Molecular Biosciences, 2022).

Experiments:
[1] = tested on: S. aureus ISOL_1 (multidrug-resistant isolate); format: cell-based, Staphylococcus aureus; conditions: for MIC: S. aureus ISOL_1, microdilution plates, Mueller Hinton, 10^4 bacterial cells per well, peptides 32 to 0.25 μM, triplicate
From the text: (§1) Escherichia coli (ATCC 25922), Staphylococcus aureus (ATCC 33591), and three multidrug-resistant isolates (two E. coli and one S. aureus) were provided by Laboratory of Oral Microbiology and Anaerobes, Department of Microbiology, Institute of Biological Sciences, Federal University of Minas Gerais. Renal epithelial cells of the African green monkey (Cercopithecus aethiops) (VERO, ATCC CCL-81) were provided by the Federal University of Sao Joao del-Rei (UFSJ).
(§2) In order to determine MIC values of the PEGylated and the non-PEGylated peptides, bacterial isolates were cultured in TSA. After incubation for 24 h, at 37°C, under aerobic conditions, colonies were collected using an inoculation loop and transferred to saline solution (0.9% m/v NaCl). The inoculums were checked in a spectrophotometer at 600 nm; colonies were added until an absorbance corresponding to 1.5 × 10^8 cells · mL^−1 was obtained. Then, a 150-fold dilution was performed to achieve a concentration of 1 × 10^6 cells · mL^−1. MIC assays were performed in microdilution plates employing inoculums of 10^4 bacterial cells per well and concentrations of peptides ranging from 32 to 0.25 μM. All analyses were performed in triplicate. Positive (MH + bacterial inoculum) and negative (MH and MH + saline solution) controls were included in each batch of tests.
(§3) The specific values of molar peptide concentration used in this work were estimated according to the method described by [Schmid (2001)].

[2] = tested on: trypsin; test: Proteolytic degradation assay, RP-HPLC; format: in vitro ADME; conditions: 50 μM peptide, enzyme:substrate 1:50 (w/w), 10 mM phosphate buffer pH 8.0, 37°C, up to 24 h, RP-HPLC C18, UV 215 nm
Method: (§4) The enzymes used in the experiments were trypsin and proteinase K. Enzyme solutions were prepared a few minutes before the experiments and contained 1.0 µM enzyme in 10 mM phosphate buffer at pH 8.0 for activation. Comparative proteolysis experiments between LyeTx I-b and LyeTx I-bPEG were performed by digesting the peptide solution (50 μM) with the enzyme solutions incubated at 37°C at an enzyme:substrate ratio of 1:50 (w/w) for trypsin and 1:50 (w/w) for proteinase K for 24 h. […] After inactivation, aliquots of 50 µL were injected into a Varian™ chromatograph (Varian, Inc. Corporate Headquarters, Palo Alto, CA, United States), model Pro Star 315, with ultraviolet detector, model Pro Star 335, using a Vydac™ 218 TP C18 (250 × 4.6 mm) reverse phase column. Chromatographic analyses were performed using a gradient of deionized water containing 0.1% TFA and acetonitrile containing 0.08% TFA. Samples were detected at 215 nm under a flow of 0.80 mL · min^−1 for 45 min.

[3] = target: proteinase K (Parengyodontium album, UniProt P06873); test: Proteolytic degradation assay, RP-HPLC; format: in vitro ADME; conditions: 50 μM peptide, enzyme:substrate 1:50 (w/w) or 1:25 (w/w), 10 mM phosphate buffer pH 8.0, 37°C, up to 24 h, RP-HPLC C18, UV 215 nm
Sequence of proteinase K (P06873 106-384): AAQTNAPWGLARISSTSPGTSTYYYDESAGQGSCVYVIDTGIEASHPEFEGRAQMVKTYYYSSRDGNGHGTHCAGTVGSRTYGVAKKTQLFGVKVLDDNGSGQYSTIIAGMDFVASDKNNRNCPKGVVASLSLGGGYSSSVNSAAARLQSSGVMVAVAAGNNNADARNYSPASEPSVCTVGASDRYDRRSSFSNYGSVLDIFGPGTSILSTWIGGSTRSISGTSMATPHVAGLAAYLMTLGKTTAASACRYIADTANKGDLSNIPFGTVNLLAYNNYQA
Method: as §4

[4] = tested on: E.coli ISOL_11 (multidrug-resistant isolate); format: cell-based, Escherichia coli; conditions: for MIC: E. coli ISOL_11, microdilution plates, Mueller Hinton, 10^4 bacterial cells per well, peptides 32 to 0.25 μM, triplicate
From the text: as §1, §2, §3

[5] = tested on: E.coli ISOL_10 (multidrug-resistant isolate); format: cell-based, Escherichia coli; conditions: microdilution plates, Mueller Hinton, 10^4 bacterial cells per well, peptides 32 to 0.25 μM, triplicate
From the text: as §1, §2, §3

[6] = tested on: Staphylococcus aureus (ATCC 33591); format: cell-based; conditions: for MIC: S. aureus ATCC 33591, microdilution plates, Mueller Hinton, 10^4 bacterial cells per well, peptides 32 to 0.25 μM, triplicate
From the text: as §1, §2, §3

[7] = tested on: Escherichia coli (ATCC 25922); format: cell-based; conditions: for MIC: E. coli ATCC 25922, microdilution plates, Mueller Hinton, 10^4 bacterial cells per well, peptides 32 to 0.25 μM, triplicate
From the text: as §1, §2, §3

| Substance | MIC [1] | Selectivity index (SI) ([1]; S. aureus ISOL_1 versus VERO cells (CC50, MTT, 24 h)) | Proteolytic degradation by trypsin [2] | Proteolytic degradation by proteinase K [3] | MIC [4] | Selectivity index (SI) ([4]; E. coli ISOL_11 versus VERO cells (CC50, MTT, 24 h)) | MIC [5] | MIC [6] | Selectivity index (SI) ([6]; S. aureus ATCC 33591 versus VERO cells (CC50, MTT, 24 h)) | MIC [7] | Selectivity index (SI) ([7]; E. coli ATCC 25922 versus VERO cells (CC50, MTT, 24 h)) |
| --- | --- | --- | --- | --- | --- | --- | --- | --- | --- | --- | --- |
| Ac-IWLTALKFLGKNLGKLAKQQLAKL-NH2 [LyeTx I-b] | 2.0 µM | 0.48 | almost completely degraded after 6 h | almost completely degraded after 6 h | 1.0 µM | 0.96 | 1.0 µM | 2.0 µM | 0.48 | 1.0 µM | 0.96 |
| Ac-IWLTALKFLGKNLGKLAKQQCAKL-NH2 [LyeTx I-bcys] | 2.0 µM |  |  |  | 1.0 µM |  | 1.0 µM | 2.0 µM |  | 1.0 µM |  |
